In patent US10106853B2, “CUL4B as predictive biomarker for cancer treatment” (CORNELL UNIVERSITY, priority 2012, dated 2018):

How the values were obtained:
BT474 cells [1] = experiment: XTT assay for cytotoxic response to camptothecin, BT474; format: cell-based, Human
Protocol: FIG. 2. CUL4B interacted with Top1 and induced Top1 degradation in the presence of CPT. A) Knockdown of CUL4B impaired CPT-induced Top1 degradation. BT474 cells were infected with lentiviral shCUL4B, shCUL4A or control non-targeting shRNA, and selected for stable CUL4B^k/d or CUL4A^k/d cells upon treatment with puromycin. Following treatment with CPT (50 μM) for 1 hour, cells were replenished with CPT-free fresh medium and incubated at 37° C. for 30 minutes. Top1 degradation was assessed by immunoblotting with an anti-Top1 antibody. Levels of α-tubulin were measured as a loading control. B) Association of CUL4B with Top1 following CPT treatment. […] Top1 degradation was assessed by immunoblotting with the anti-Top1 antibody. Levels of α-tubulin were measured as a loading control. […] Statistical significance in cellular response to CPT between control BT474 cells and CUL4A^k/d or CUL4B^k/d cells were assessed by a two-tailed unpaired student t-test (***: p<0.001). […] Statistical significance in cellular response to camptothecin between control cells and CUL4A^k/d or CUL4B^k/d BT474 cells are assessed by student's t-test.
Synchronized cells were seeded into 96-well microplates. […] The optical density was measured with a microplate reader. […] Data were expressed as the mean±S.E. Difference in the survival ratios between the two cell lines at each concentration point was assessed by the student's T test. […]

CUL4B-Top1 interaction = target: T1, CUL4B-Top1 interaction (Homo sapiens, UniProt P11387); experiment: Co-immunoprecipitation of CUL4B and Top1 in BT474 cells; format: cell-based; details: BT474 cells in the presence of CPT, crosslinked
T1 construct: Top1 was co-immunoprecipitated with CUL4B in the presence of CPT; host or cells: BT474 human breast cancer cells
Protocol: BT474 cells were infected with lentiviral shCUL4B, shCUL4A or control non-targeting shRNA, and selected for stable CUL4B^k/d or CUL4A^k/d cells upon treatment with puromycin. Following treatment with CPT (50 μM) for 1 hour, cells were replenished with CPT-free fresh medium and incubated at 37° C. for 30 minutes. Top1 degradation was assessed by immunoblotting with an anti-Top1 antibody. Levels of α-tubulin were measured as a loading control. B) Association of CUL4B with Top1 following CPT treatment. BT474 cells were treated with proteosome inhibitor MG132 (15 μM) for 3 hours, and were subjected to crosslinking with 0.2 mM Dithiobis[succinimidyl propionate](DSP) for the last 30 min at room temperature. Cell lysates were prepared, and immunoprecipitated with the anti-Top1 or anti-CUL4B antibodies, and then immunoblotted using antibodies against CUL4B or Top1, respectively. […] Top1 degradation was assessed by immunoblotting with the anti-Top1 antibody. Levels of α-tubulin were measured as a loading control. […] Statistical significance in cellular response to CPT between control BT474 cells and CUL4A^k/d or CUL4B^k/d cells were assessed by a two-tailed unpaired student t-test (***: p<0.001). […] Statistical significance in cellular response to camptothecin between control cells and CUL4A^k/d or CUL4B^k/d BT474 cells are assessed by student's t-test. […]

BT474 cells [2] = experiment: XTT Cell Proliferation Assay, growth rate of BT474 cells in vitro; format: cell-based, Human; details: knockdown cells vs control, no drug
Protocol: FIG. 5. CUL4B inactivation sensitized BT474 xenograft tumors to topotecan. Stable TGL-BT474 cells (BT474 cells stably expressing GFP-luciferase reporter) were established by retroviral transduction and FACS sorting. The resulting TGL-BT474 cells were infected with recombinant lentiviruses expressing non-targeting shCtrl, shCUL4A or shCUL4B, followed by selection of infected cells with 4 μg/ml puromycine for one week. A) Knockdown of endogenous CUL4A and 4B were verified by immunoblotting. […] Statistical significance in tumor burden between control and CUL4A^k/d or CUL4B^k/d xenograph are assessed by a two-tailed unpaired student t-test (***: p<0.001). […] The same number of control, CUL4A^k/d and CUL4B^k/d BT474 cells were seeded to 96-well plates and cell proliferation was measured using the XTT Cell Proliferation Assay Kit. […] Statistical significance in cellular rate between control cells and CUL4A^k/d or CUL4B^k/d cells are assessed by student's t-test. […] 1×10^7 of control, CUL4A^k/d or CUL4B^k/d TGL-BT474 cells were injected subcutaneously in the right flank of each mouse of athymic Nu/J nude mice, and tumor burden was measured by bioluminescent imaging (E). On the 22nd day, tumors were collected, and the weight of exercised tumors was measured after mice were sacrificed (F).

T1 sequence (P11387 2-765 limits assumed): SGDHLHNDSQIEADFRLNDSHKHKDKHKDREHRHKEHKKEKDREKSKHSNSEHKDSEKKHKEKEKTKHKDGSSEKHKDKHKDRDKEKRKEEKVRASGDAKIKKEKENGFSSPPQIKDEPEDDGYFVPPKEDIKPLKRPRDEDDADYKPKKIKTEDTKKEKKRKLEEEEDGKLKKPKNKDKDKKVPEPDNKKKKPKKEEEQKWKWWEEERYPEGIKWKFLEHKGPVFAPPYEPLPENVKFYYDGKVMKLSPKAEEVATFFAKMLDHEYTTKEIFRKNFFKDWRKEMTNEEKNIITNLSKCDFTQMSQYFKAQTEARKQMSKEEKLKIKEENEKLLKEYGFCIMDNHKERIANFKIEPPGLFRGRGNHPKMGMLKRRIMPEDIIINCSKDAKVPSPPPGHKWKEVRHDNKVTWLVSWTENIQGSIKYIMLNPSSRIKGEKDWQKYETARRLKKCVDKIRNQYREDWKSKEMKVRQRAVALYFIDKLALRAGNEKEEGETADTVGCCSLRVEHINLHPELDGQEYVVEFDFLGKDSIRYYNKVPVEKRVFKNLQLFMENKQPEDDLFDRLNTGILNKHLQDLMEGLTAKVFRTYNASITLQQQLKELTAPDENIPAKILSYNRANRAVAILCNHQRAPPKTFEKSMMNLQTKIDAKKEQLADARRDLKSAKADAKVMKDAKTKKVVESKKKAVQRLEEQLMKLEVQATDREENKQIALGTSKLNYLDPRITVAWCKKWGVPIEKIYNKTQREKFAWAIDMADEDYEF
T1 sequence (Q13620 whole entry partner): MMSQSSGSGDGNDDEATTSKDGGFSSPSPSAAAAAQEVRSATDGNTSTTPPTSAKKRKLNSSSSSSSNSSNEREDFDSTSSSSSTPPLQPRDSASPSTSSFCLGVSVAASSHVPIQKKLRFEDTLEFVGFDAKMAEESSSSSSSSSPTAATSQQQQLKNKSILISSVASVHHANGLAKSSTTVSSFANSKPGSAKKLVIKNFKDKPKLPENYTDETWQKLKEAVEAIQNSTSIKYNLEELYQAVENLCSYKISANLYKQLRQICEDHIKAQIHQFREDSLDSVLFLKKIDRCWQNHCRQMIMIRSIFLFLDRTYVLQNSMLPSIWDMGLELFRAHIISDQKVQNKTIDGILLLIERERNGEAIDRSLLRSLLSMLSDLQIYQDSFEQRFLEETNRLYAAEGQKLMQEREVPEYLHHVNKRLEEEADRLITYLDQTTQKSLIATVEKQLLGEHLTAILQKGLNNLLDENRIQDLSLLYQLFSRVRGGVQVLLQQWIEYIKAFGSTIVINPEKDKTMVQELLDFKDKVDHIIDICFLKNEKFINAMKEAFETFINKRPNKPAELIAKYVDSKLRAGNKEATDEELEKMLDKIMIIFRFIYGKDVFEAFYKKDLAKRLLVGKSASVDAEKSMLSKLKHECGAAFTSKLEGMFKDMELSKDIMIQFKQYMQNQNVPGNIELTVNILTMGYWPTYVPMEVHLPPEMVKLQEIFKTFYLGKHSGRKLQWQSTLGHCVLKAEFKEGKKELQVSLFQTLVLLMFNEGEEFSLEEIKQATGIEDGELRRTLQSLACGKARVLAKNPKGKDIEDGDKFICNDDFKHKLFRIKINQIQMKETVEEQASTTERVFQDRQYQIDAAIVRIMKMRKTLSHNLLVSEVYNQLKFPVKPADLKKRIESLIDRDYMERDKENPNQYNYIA

Compound | Survival rate of CPT-treated cells (BT474 cells [1]; BT474 cells with knockdown of CUL4A) | Cytotoxic killing by CPT (cell survival) (BT474 cells [1]; BT474 cells with knockdown of CUL4B, CPT three days) | Association of Top1 with CUL4B (CUL4B-Top1 interaction) | Growth rate of cultured BT474 cells in vitro (BT474 cells [2])
CC[C@@]1(O)C(=O)OCc2c1cc1n(c2=O)Cc2cc3ccccc3nc2-1 [CPT, (S)-4-ethyl-4-hydroxy-1H-pyrano[3′,4′:6,7]indolizino[1,2-b]quinoline-3,14-(4H, 12H)-dione] | no effect | sensitized | co-immunoprecipitated | 
shCUL4B: lentiviral shRNA CUL4B sequence purchased from Sigma Aldrich, reduces CUL4B expression (CCGGGCAGAATTTAAAGAGGGTAAACTCGAGTTTACCCTCTTTAAATTCTGCTTTTT) |  |  |  | no effect
